In US5681832A, “Aroylaniline compounds, pharmaceutical compositions, and methods of using same to inhibit viral activity” (priority 1995, dated 1997):

Tests used:
[1] = tested on: T4 lymphocytes (CEM cell line); experiment: toxicity control: survival of uninfected T4 lymphocytes (CEM cell line) treated with compound (growth inhibition); type: cell-based
Procedure: (§1) 1. Candidate agent is dissolved in dimethyl sulfoxide (unless otherwise instructed) and then diluted 1:100 in cell culture medium before preparing serial half-log10 dilutions which are then to 96-well microfilter plates. T4 lymphocytes (CEM cell line) are added, and after a brief interval HIV-1 is added to all wells, resulting in a 1:200 final dilution […]. Uninfected cells with the compound serve as a toxicity control, and infected and uninfected cells without the compound serve as basic controls.
(§2) 2. Cultures are incubated at 37° C. in a 5% carbon dioxide atmosphere for 6 days.
(§3) 3. The tetrazolium salt, XTT, is added to all wells, and cultures are incubated to allow formazan color development by viable cells.
(§4) 4. Individual wells are analyzed spectrophotometrically to quantitate formazan production, and in addition are viewed microscopically for detection of viable cells and confirmation of protective activity.
(§5) 5. Drug-tested virus-infected cells are compared with drug-treated noninfected cells and with other appropriate controls (untreated infected and untreated noninfected cells, drug-containing wells without cells, etc.) on the same plate.
(§6) FIGS. 1 to 6 display a plot of the log10 of the concentrations (as μg/mL or molar as shown) of the aroylaniline compounds, Compounds 1, 3, 13, 14, 29 and 32, against the measured test values expressed as a percentage of the uninfected, untreated control values. The solid line depicts the percentage of surviving HIV-infected cells treated with sample (at the indicated concentration) relative to uninfected, untreated controls. Thus, the solid line expresses the anti-HIV activity of the compound. The dashed line depicts the percentage of surviving uninfected cells treated with the compound relative to the same uninfected, untreated controls. Thus, the dashed line expresses the growth inhibitory properties of the compound. The viral cytopathic effect […] is indicated by a dotted reference line. […] Survival values of this parameter less than 50% are considered acceptable in the current protocol. Approximate values for 50% effective concentration (EC50) have been calculated for each test and are set forth for these Compounds in Tables 2-7, respectively.

HIV-1 = experiment: in vitro anti-HIV screening (NCI XTT soluble-formazan assay, protection of HIV-1-infected CEM T4 lymphocytes from cytolysis); type: cell-based
Excerpt: The aroylaniline compounds of the present invention were subjected to in vitro screening to determine their anti-HIV activity.
The National Cancer Institute's procedure for testing for agents active against Human Immunodeficiency Virus (HIV) (Weislow, O. W. et al., "New soluble-formazan assay for HIV-1 cytopathic effects: application to high-flux screening of synthetic and natural products for AIDS-antiviral activity," J. Natl Cancer Inst., 81, 577-586 (1989)) is designed to detect agents acting at any stage of the virus reproductive cycle. The assay includes the killing of T4 lymphocytes by HIV. Pursuant to the test, small amounts of HIV are added to cells, and a complete cycle of virus reproduction is necessary to obtain the required cell killing. Agents that interact with virions, cells, or virus gene-products to interfere with viral activities will protect cells from cytolysis. The system is thus designed to detect anti-HIV activity. However, compounds that are chemically labile or are rapidly metabolized in the culture conditions may not show activity in this screen. All tests are compared with at least one positive (e.g., AZT-treated) control done at the same time under identical conditions.
as §1, §2, §3, §4, §5
6. Data are reviewed in comparison with other tests done at the same time and a determination about activity is made.
The aroylaniline compounds of the present invention were tested for anti-HIV activity according to the above procedure. FIGS. 1-6 represent test results of the aroylaniline compounds of Compounds 1, 3, 13, 14, 29 and 32.
as §6

With “N,N'-Bis(4-amino-2-sulfobenzoyl)-4,4'-diaminostilbene-2,2-disulfonic acid tetrasodium salt [Compound 32]” the “Percent of Control, Uninfected” value ([1]; 2.00 × 10^-4 Molar) was 35.45%, the “Percent of Control, Uninfected” value ([1]; 2.00 × 10^-5 Molar) was 98.84% and the “Percent of Control, Uninfected” value ([1]; 2.01 × 10^-6 Molar) was 98.97%. For the same substance, the “Percent of Control, Uninfected” value ([1]; 2.01 × 10^-7 Molar) was 82.40%, the “Percent of Control, Uninfected” value ([1]; 6.33 × 10^-5 Molar) was 95.50% and the “Percent of Control, Uninfected” value ([1]; 6.34 × 10^-6 Molar) was 94.34%. For the same substance, the “Percent of Control, Uninfected” value ([1]; 6.35 × 10^-7 Molar) was 95.11%, the “Percent of Control, Uninfected” value ([1]; 6.36 × 10^-8 Molar) was 83.94% and the IC50 ([1]; uninfected CEM cells, 6 days, read-out: IC50 (Molar)) was 151 µM. The “Percent of Control, Infected” value (HIV-1; 2.00 × 10^-4 Molar) was 61.85%, the “Percent of Protection” value (HIV-1; 2.00 × 10^-4 Molar, 200 µM) was 52.90% and the “Percent of Control, Infected” value (HIV-1; 2.00 × 10^-5 Molar) was 112.68%. The “Percent of Protection” value (HIV-1; 2.00 × 10^-5 Molar, 20 µM) was 115.65%, the “Percent of Control, Infected” value (HIV-1; 2.01 × 10^-6 Molar) was 97.97% and the “Percent of Protection” value (HIV-1; 2.01 × 10^-6 Molar, 2.01 µM) was 97.49%. For the same substance, the “Percent of Control, Infected” value (HIV-1; 2.01 × 10^-7 Molar) was 14.10%, the “Percent of Protection” value (HIV-1; 2.01 × 10^-7 Molar, 0.201 µM) was -6.05% and the “Percent of Control, Infected” value (HIV-1; 6.33 × 10^-5 Molar) was 115.38%. The “Percent of Protection” value (HIV-1; 6.33 × 10^-5 Molar, 63.3 µM) was 118.99%, the “Percent of Control, Infected” value (HIV-1; 6.34 × 10^-6 Molar) was 105.65% and the “Percent of Protection” value (HIV-1; 6.34 × 10^-6 Molar, 6.34 µM) was 106.98%. The “Percent of Control, Infected” value (HIV-1; 6.35 × 10^-7 Molar) was 26.85%, the “Percent of Protection” value (HIV-1; 6.35 × 10^-7 Molar, 0.635 µM) was 9.69% and the “Percent of Control, Infected” value (HIV-1; 6.36 × 10^-8 Molar) was 17.12%. The “Percent of Protection” value (HIV-1; 6.36 × 10^-8 Molar, 0.0636 µM) was -2.32%, the EC50 (HIV-1; HIV-1-infected CEM cells, 6 days, approximate values, read-out: EC50 (Molar), 50% effective concentration) was 1.08 µM and the Conclusion (HIV-1; NCI anti-HIV screen) was “CONFIRMED ACTIVE”.
